Laboratory results: patent US20090118194A1, “Measurement of melanocortin peptides and uses thereof” (Auckland UniServices Limited, priority 2002, published 2009)
“Also recorded” adds a separate entry of the source.

Key:
[1] = system: hypothalamic proteins; test: Hypothalamic proteome analysis after i.c.v. injection; assay type: in vivo, rat
Method: Alpha-MSH and desacetyl-α-MSH both couple melanocortin receptors to either adenylyl cyclase or calcium-signalling pathways in vitro. To characterise the signal transduction pathways engaged by α-MSH and desacetyl-α-MSH in vivo, rats received an intracerebroventricular (i.c.v.) injection of either phosphate buffered saline (PBS), α-MSH or desacetyl-α-MSH. Three hours later, food intake was measured and hypothalamic tissues were collected for 2D gel electrophoresis-based proteome analysis.
Adult male Wistar rats (50-60 days old, 230-260 g at the beginning of the experiment) were maintained in individual cages under controlled temperature (23° C.) and reverse lighting (1000-2200 lights off). Standard laboratory chow (NZ Stockfeed Ltd) and tap water were available ad libitum during the adaptation phase. During this time animals were handled daily to minimize the effects of stress on food intake during experiments. Body weight was measured daily before, and one week after cannulation. Any animal showing signs of illness, such as weight loss, poor grooming, or decreased activity, was removed from the study. All animal procedures undertaken were approved by the Animal Ethics Committee of the University of Auckland.
After 7 days of adaptation, animals were subject to cannula placement surgery under 3% halothane/O2 anaesthesia. A permanent lateral ventricle infusion cannula (6-mm 21 gauge) was placed on top of the dura at 7.5 mm anterior from stereotaxic zero, 1.5 mm to the right of the mid-sagittal line, and secured to the skull with dental cement. Animals were allowed at least 7 days to recover from surgery before injections.
Rats were fasted overnight before the day of experiment.
Under 3% halothane/O2 anaethesia rats were infused icv through a 12-mm 27-gauge needle, connected to 20-cm length tubing attached to a syringe. Infusions were performed in the early dark phase between 1000 and 1130 hr using motor driven infusion pumps at a rate of 1.0 μl/min over 10 min. Movement of a 0.2 ml air-space introduced between the 0.9% saline solution filling the PE10 tubing-syringe system and the test solution served as an indicator of a successful infusion. At the end of each experiment animals were euthanised by pentobarbital overdose, and cannula placement was confirmed by visual inspection of the cannula tip location within the brain ventricular system.
Only one of these proteins was common to α-MSH and desacetyl-α-MSH. A combination of Reverse-phase HPLC followed by Edman protein sequencing, and peptide mass fingerprinting technique using MALDI-TOF mass spectrometry were used to identify the proteins of interest. The proteomic data provide a snap-shot of the protein expression patterns in the hypothalamus 3 hours post i.c.v. administration of the melanocortin peptides.

[2] = system: neonatal rats; test: Body and organ weights of neonatal rats after subcutaneous injection; assay type: in vivo, rat; details: s.c. 0.3 μg/g body weight/day; for body weight change (growth) over 14 days vs PBS: first 14 days of life
Method: Adult female Wistar rats were housed in plastic cages and kept on a 12-h dark/light cycle. Animals received tap water and rat pellets ad libitum and were mated with males of the same strain. Each litter of new-born Wistar rats was culled to 9 pups per mother.
PBS or freshly prepared peptide solutions made up freshly in PBS containing 0.1% BSA were injected subcutaneously once per day in a volume of 40 μl for 14 days. Animals were injected on day 14 and 1 h later they were euthanised using sodium pentobarbital.
Rats were weighed at birth and then every 2 days prior to injection of peptides. Body weights were recorded on day 14 before injection and again when they were euthanised. The following organs were dissected and weighed: brain, heart, kidney, liver, lung, spleen.
Liner relationships between organ weights and body weights was tested using regression analysis of the organ weights measured against final body weight on day 14. There were significant linear relationships between organ weights and body weights for the following tissues: brain, spleen, heart, kidney and liver. There was no significant regression between lung weight and body weight. For those organs where their weight was linearly correlated to body weight, treatment effects on organ weight changes were analysed using ANCOVA with body weight as the co-variate.
Differences in body weight were analysed using a General Linear Model with repeated measures. Significance was assumed at the P<0.05 level.

[3] = system: primary rat osteoblasts; test: Primary rat osteoblast proliferation assay ([3H]thymidine incorporation, cell number); assay type: cell-based
Excerpt: Primary rat osteoblasts were isolated from 20 day fetal rat calvariae. (The use of animals for these studies was approved by the Auckland Animal Ethics Committee.) Calvariae were excised and the frontal and parietal bones, free of suture and periosteal tissue, were collected and sequentially digested using collagenase as previously described (Cornish J, Callon K E, Lin C Q X, Xiao C L, Mulvey T B, Cooper G J S, Reid I R Trifluoroacetate, a contaminant in puritied proteins, inhibits proliferation of osteoblasts and chondrocytes. Amer J Physiol Endocrinol Metab 277: E779-E783, 1999). Primary rat osteoblasts were grown in DMEM supplemented with 10% FCS, 50 U/ml penicillin and 50 μg/ml streptomycin. After 48 hour, the medium was changed to MEM. Confluence was reached within 5-6 days, at which time the cells were subcultured into 10 cm culture plates for RNA preparation or 24 well plates for proliferation assays.
Primary rat osteoblasts were subcultured into 24 well plates at a density of 5×10^4 cells/ml/well in MEM, 5% FCS for 24 hours. Cells were growth arrested in MEM, 0.1% bovine serum albumin (BSA) for 24 hour and then fresh media and experimental compounds were added for a further 24 hours. Cells were pulsed with [^3H]thymidine (0.5 μCi/well) 2 hours before the end of the experimental incubation. The experiment was terminated and both cell numbers and thymidine incorporation were assessed. Cell numbers were analysed by detaching cells from the wells by exposure to trypsin/EDTA (0.05%/0.53 mM) for approximately 5 minutes at 37° C. Counting was performed in a hemocytometer chamber. Results are expressed per well. [^3H]Thymidine incorporation was analysed by washing the cells in MEM followed by the addition of 10% trichloroacetic acid. The precipitate was washed twice with ethnol:ether (3:1) and the wells desiccated at room temperature. The residue was dissolved in 2M KOH at 55° C. for 30 minutes, neutralized with 1M HCl, and an aliquot counted for radioactivity. Results are expressed as dpm per well. Each experiment was performed at least three times using experimental groups consisting of at least six wells.
Data are presented as mean±SEM. The significance of differences between groups was determined using Student's t tests for unpaired data and a 5% significance level. The comparisons to be made in each experiment were specified a priori, so no adjustment for multiple comparisons was necessary. Where several experiments have been shown in one figure, the data are expressed as the ratio of results in treatment groups to those in the control group and the ‘P’ values shown were calculated using the data from the individual experiments, before the data were pooled.

[4] = hypothalamus, 3 h after i.c.v. injection, rats

Cu/Zn superoxide dismutase (p1347), effect compared to control [1, 4]: 1.4 fold decrease
Protein disulfide isomerase (p261), effect compared to control [1, 4]: 1.4 fold decrease
gamma-enolase (p1438), effect compared to control [1, 4]: 1.7 fold decrease
glyceraldehyde-3-phosphate-dehydrogenase (p1210), effect compared to control [1, 4]: 1.4 fold decrease
phosphatidylethanolamine binding protein (p1267), effect compared to control [1, 4]: 2.5 fold decrease
triosephosphate isomerase (p1521), effect compared to control [1, 4]: 1.4 fold decrease
Sequence: SYSMEHFRWGKPV [desacetyl-α-MSH, non-acetylated form of α-MSH, obtained from Bachem]
number of hypothalamic proteins with expression significantly different from PBS ([1]; 3 hours post i.c.v., p<0.05): 20
brain weight vs PBS ([2]; 14 days): significantly decreased brain weight
kidney weight vs PBS ([2]; 14 days): no significant effect on kidney weight
spleen weight vs PBS ([2]; 14 days): significantly increased spleen weight
body weight change (growth) over 14 days vs PBS [2]: grew significantly slower
body weight change (growth) over 14 days vs PBS ([2]; listed as Desacetyl-α-MSH): significantly slowed body weight change
body weight catch up compared to PBS treated rats ([2]; from day 12): appeared to catch up on body weight from day 12
antagonism of α-MSH stimulated [3H] thymidine uptake ([3]; 10^−7 M against α-MSH 10^−8 M and 10^−7 M, growth arrested primary rat osteoblasts): inhibited two doses of α-MSH (10^−8 M and 10^−7 M) from stimulating [^3H] thymidine uptake; also recorded: antagonise α-MSH stimulated stimulation of thymidine incorporation
osteoblast proliferation ([3]; 10^−7 M and 10^−8 M, alone): no significant effect on osteoblast proliferation in two out of three experiments
thymidine incorporation or cell numbers (proliferation) ([3]; growth arrested primary rat osteoblasts, 10^−7 M, alone): did not stimulate thymidine incorporation or cells numbers
